Measurements reported in article PMC6642116, “Structural and functional analyses of hepatitis B virus X protein BH3-like domain and Bcl-xL interaction” (Nature Communications, 2019).

Key:
Bcl-xL = target: T1, Bcl-xL (Homo sapiens, UniProt Q07817, DEL27-82); assay: Isothermal titration calorimetry of peptides with Bcl-xL; assay type: binding; details: ITC, 25 °C; Bcl-xL 10 μM in 25 mM Tris-HCl (pH 8.0); peptide 800 μM
T1 construct: 6xHis-SUMO (N, cleaved yes); made in house; host or cells: Escherichia coli BL21(DE3)
T1 sequence (Q07817 with tags, fused parts or gaps DEL27-82 limits assumed): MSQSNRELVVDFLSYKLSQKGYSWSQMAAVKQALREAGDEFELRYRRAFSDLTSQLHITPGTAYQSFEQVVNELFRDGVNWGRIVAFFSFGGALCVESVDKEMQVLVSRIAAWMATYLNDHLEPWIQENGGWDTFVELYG
From the text: The codon-optimized DNAs encoding Bcl-xLΔTM (the flexible loop, residues 27–82, and the transmembrane domain, residues, 197–233, are deleted, total […], named as Bcl-xL thereafter) was ordered from Genewiz (www.genewiz.com). The recombinant Bcl-xL with N-terminal SUMO-fused 6× His tag was generated by the insertion of the PCR products into pETSUMO vector (Invitrogen; www.thermofisher.com) and verified by sequencing. Recombinant proteins were expressed in Escherichia coli (BL21/DE3) strain overnight at 20 °C and proteins were induced by 0.4 mM isopropyl β-D-thiogalactoside. Cells were harvested by centrifugation and the pellets were re-suspended and passed through a cell disruptor (www.avestin.com) three times. After ultracentrifugation at 40,000 rpm for 1 h, the supernatant for His-tagged recombinant proteins were purified through Ni^2+ affinity column, cleaved by Ulp-1, followed by HiLoad Superdex S-75 26/60 column (GE Healthcare). The purified proteins were dialyzed against stabilization buffer containing 20 mM Tris-HCl (pH 7.0) and 100 mM NaCl and concentrated to 10–15 mg/ml in a Centriprep-30 (Amicon) for subsequent crystallization and biochemical analysis.
Microcalorimetry was used for all measurements. Bcl-xL protein was prepared at a final concentration of 10 μM in a buffer containing 25 mM Tris-HCl (pH 8.0). The ABT-263 was dissolved in the same buffer to a final concentration of 500 μM, while the peptides were dissolved to a final concentration of 800 μM. All experiments were carried out at 25 °C. Data were analyzed using the software Origin (OriginLab).

[1] = tested on: endogenous Bcl-xL protein in HepG2 cell lysate; assay: Co-precipitation of endogenous Bcl-xL from HepG2 cell lysate by biotinylated HBx peptides; assay type: binding, human; details: biotinylated peptide, streptavidin beads, immunoblot
Experimental: Fig. 2 HBx binds endogenous Bcl-xL through the BH3-like domain. a HBx-aa113–135 interacts with Bcl-xL in HepG2 cell lysate. Co-precipitation experiments were performed in the HepG2 cell lysate using biotinylated HBx-aa113–135 peptides (wild type (WT)) and corresponding mutant peptides (W120A/L123A), respectively. The results were analyzed by immunoblotting (IB) using anti-Bcl-xL antibody. β-Tubulin was measured and analyzed as an input control. b Full-length HBx interacts with Bcl-xL in HepG2 cells. Co-immunoprecipitation (co-IP) experiments were performed in HepG2 cells transfected with pTT22m-HBx-WT or pTT22m-HBx(W120A/L123A).
HepG2 cells were lysed in lysis buffer [100 mM NaCl, 0.5 mM MgCl2, 0.15 mM CaCl2, 1% (v/v) Nonidet P-40, 10 mM Tris-HCl, pH 8.0] containing protease inhibitor mixture tablets (Roche). Cell lysate was centrifuged at 12,000 × g for 10 min at 4 °C to removed debris and precleared with magnetic beads conjugated with streptavidin (Dynabeads® M-280 Streptavidin, Invitrogen). Subsequently, the precleared supernatant was incubated with C-terminal biotinylated peptides for 1 h with gentle shaking at 4 °C. […] The beads were washed five times with the lysis buffer and the bound proteins were resolved on a 13.5% sodium dodecyl sulfate-polyacrylamide gel and detected by anti-Bcl-xL antibody (Cell Signaling Technology).

[2] = tested on: HBV replication from pHBV1.3-Xnull replicon in HepG2 cells; assay: HBV production rescue assay, PEP-1 delivered peptides; assay type: cell-based; details: HepG2 + pHBV1.3-Xnull; for HBcAg in cells / HBeAg in culture medium / HBsAg in culture medium / Secreted HBV DNA: peptide/PEP-1, 48 h; for HBV viral protein production and HBV DNA replication (in words): peptide/PEP-1 nanoparticles, 48 h
From the text: Fig. 3 The HBx-BH3-like domain is critical for HBV production in HepG2 cells. a–e C-terminal biotinylated HBx-aa113–135 peptides (both wild-type (WT) and the W120A/L123A double mutant) were delivered into HepG2 cells transfected with pHBV1.3-Xnull using PEP-1 nanoparticles (Methods) and analyzed by streptavidin-FITC (fluorescein isothiocyanate) for transfection efficiency (a). Scale bar is 50 μm. An unrelated 23-aa peptide was used as a control (Control). The intracellular expression levels of HBV core antigen (HBcAg (b) and the levels of HBV e-antigen (HBeAg) (c), HBV S-antigen (HBsAg) (d), and HBV DNA (e) in the culture medium collected from HepG2 cells were measured (Methods). The results are shown as fold change to the WT HBx-aa113–135 peptide (WT). f–i) HepG2 cells were co-transfected with pHBV1.3-Xnull and pTT22m-HBx-WT (WT), pHBV1.3-Xnull and pTT22m-HBx(W120A/L123A), or pHBV1.3-Xnull and the pTT22m vector control (Control). Intracellular expression levels of HBcAg (f) and the levels of HBeAg (g), HBsAg (h), and HBV DNA (i) in the culture medium from HepG2 cells were measured similarly. The results are shown as fold change to the combination of pHBV1.3-Xnull and pTT22m-HBx-WT (WT). Data shown represent mean ± SD. Significance is indicated on the top. **P < 0.01, ***P < 0.001, ****P < 0.0001; two-tailed unpaired t tests (n = 3 biologically independent samples). Source data are provided as a Source Data file
HepG2 cells were grown in Dulbecco’s modified Eagle’s medium (DMEM) with 10% Gibco fetal bovine serum. C-terminal biotinylated-labeled HBx peptides were transfected into HepG2 cells by pep-1[16], a peptide carrier for the delivery of biologically active proteins into mammalian cells. HBx peptides and pep-1 were firstly dissolved in DMEM to 1 mg/ml, then adjusted to 500 µl DMEM to a final concentration of 100 µg/ml, and incubated at 37 °C for 30 min in the tube. The incubated peptide mixture was added into pre-seeded HepG2 cells in a 24-well plate and incubated for another 30 min, and then washed five times by phosphate-buffered saline (PBS) to remove the free peptides. The transfected C-terminal biotinylated HBx peptides were detected by using streptavidin-FITC (fluorescein isothiocyanate) equipment (Thermo Fisher Scientific) following the standard immunostaining methods.
Transfection of plasmids into HepG2 cells was carried out using X-tremeGENE HP DNA Transfection Reagent (Roche), following the manufacturer’s protocol. A transfection efficiency of 20–30% could be achieved. Cells were pre-seeded 24 h before transfections. pHBV1.3-HBx-null plasmid was transfected into HepG2 cells for 6 h, then HBx-aa113–135, HBx-aa113–135-(W120A, L123A), or control peptide was transfected by pep-1 carrier and incubated for additional 48 h without the removal of peptides. The culture media of the HepG2 cells were harvest for analysis.
The levels of HBsAg, HBeAg, and HBcAg expression were measured by chemiluminescence, using Commercial Assay Kit (Wantai, Beijing, China). Northern blot analysis of HBV RNA, Southern blot analysis of HBV DNA, and real-time PCR quantification of HBV DNA are described in the Supplementary Methods.

DDB1 = assay type: binding; details: biotin-conjugated peptides, HepG2 lysate; peer review file, removed from final paper
Experimental: (§1) affect the level of the Smc6 proteins in HepG2 cell. a, Coprecipitation experiments were performed with HepG2 cell lysate that was incubated with biotinylated HBx-aa113-135 peptides (WT) and mutant peptides with the W120A/L123A mutations, respectively. The pulldown proteins were analyzed by immunoblotting (IB) using an anti-DDB1 antibody (Abcam, ab109027). b-c, HBx-aa113-135 peptides (wild-type and the W120A/L123A double mutant peptides) were delivered into HepG2 cells using PEP-1 nanoparticles, respectively. […]

SMC6 = assay type: cell-based; details: HepG2, 48 h, PEP-1 delivery; peer review file, removed from final paper
Experimental: as §1
Smc6 protein expression. Nuclei were stained with DAPI (Invitrogen, D1306). The fluorescence was detected by Opera Phenix High Content Screening System (PerkinElmer) and the mean green fluorescence intensity of cells was quantified by Opera Phenix High Content Screening System. The data shown are mean ± SD. Significant differences between groups are indicated on the top. ns, no significant difference; two-tailed unpaired t-tests.

| Substance | dissociation constant (Bcl-xL) | co-precipitation of Bcl-xL [1] | HBcAg in cells ([2]; replicate 1) | HBeAg in culture medium ([2]; replicate 1) | HBsAg in culture medium ([2]; replicate 1) | Secreted HBV DNA ([2]; replicate 1) | HBcAg in cells ([2]; replicate 2) | HBeAg in culture medium ([2]; replicate 2) | HBsAg in culture medium ([2]; replicate 2) | Secreted HBV DNA ([2]; replicate 2) | HBcAg in cells ([2]; replicate 3) | HBeAg in culture medium ([2]; replicate 3) | HBsAg in culture medium ([2]; replicate 3) | Secreted HBV DNA ([2]; replicate 3) | HBV viral protein production and HBV DNA replication (in words) [2] | pull-down of DDB1 by peptide (DDB1) | level of SMC6 protein, compared with control peptide (SMC6) |
| --- | --- | --- | --- | --- | --- | --- | --- | --- | --- | --- | --- | --- | --- | --- | --- | --- | --- |
| KDCVFKDAEEAGEEIRLKVFVLG-K-biotin [HBx-aa113–135(W120A/L123A)] | not detectable | much less Bcl-xL was co-precipitated | 0.546 fold-change to WT | 0.448 fold-change to WT | 0.379 fold-change to WT | 1584000 Copies/mL | 0.465 fold-change to WT | 0.393 fold-change to WT | 0.356 fold-change to WT | 1498000 Copies/mL | 0.491 fold-change to WT | 0.405 fold-change to WT | 0.352 fold-change to WT | 1278000 Copies/mL | failed to do so | could not be pulled down | comparable |
| KDCVFKDWEELGEEIRLKVFVLG-K-biotin [HBx-aa113–135-biotin, C-terminal biotinylated wild-type HBx-aa113–135; delivered with PEP-1 nanoparticles in cells] |  | Bcl-xL was co-precipitated | 1.057 fold-change to WT | 0.919 fold-change to WT | 0.971 fold-change to WT | 3830000 Copies/mL | 0.952 fold-change to WT | 1.090 fold-change to WT | 1.038 fold-change to WT | 2973000 Copies/mL | 0.991 fold-change to WT | 0.990 fold-change to WT | 0.991 fold-change to WT | 4056000 Copies/mL | significantly increased both HBV viral protein production and HBV DNA replication | could not be pulled down | comparable |
